Structures are written as SMILES. Calls of active or inactive are those of the source. No cut-off for these calls is given here.

Data set [1] in a line: Plasma concentration in immature rat prostate weight model at 10 mg/kg, po qd administered for 4 days measured 2 hrs post last dose on day 4. The data set is classed as ADME, organism-based.
In data set [2] the test system is Rattus norvegicus. In words: In vivo antagonist activity at androgen receptor in immature rat prostate weight model assessed as testosterone propionate-induced weight of seminal vesicles over full body weight at 10 mg/kg, po qd administered for 4 days relative to testosterone propionate treated control. The class given is functional. Also noted: scale not given: the % may be the effect or the level left.

Data set [3] addresses T1, Androgen receptor (Homo sapiens, UniProt P10275).
T1 sequence (P10275 whole entry): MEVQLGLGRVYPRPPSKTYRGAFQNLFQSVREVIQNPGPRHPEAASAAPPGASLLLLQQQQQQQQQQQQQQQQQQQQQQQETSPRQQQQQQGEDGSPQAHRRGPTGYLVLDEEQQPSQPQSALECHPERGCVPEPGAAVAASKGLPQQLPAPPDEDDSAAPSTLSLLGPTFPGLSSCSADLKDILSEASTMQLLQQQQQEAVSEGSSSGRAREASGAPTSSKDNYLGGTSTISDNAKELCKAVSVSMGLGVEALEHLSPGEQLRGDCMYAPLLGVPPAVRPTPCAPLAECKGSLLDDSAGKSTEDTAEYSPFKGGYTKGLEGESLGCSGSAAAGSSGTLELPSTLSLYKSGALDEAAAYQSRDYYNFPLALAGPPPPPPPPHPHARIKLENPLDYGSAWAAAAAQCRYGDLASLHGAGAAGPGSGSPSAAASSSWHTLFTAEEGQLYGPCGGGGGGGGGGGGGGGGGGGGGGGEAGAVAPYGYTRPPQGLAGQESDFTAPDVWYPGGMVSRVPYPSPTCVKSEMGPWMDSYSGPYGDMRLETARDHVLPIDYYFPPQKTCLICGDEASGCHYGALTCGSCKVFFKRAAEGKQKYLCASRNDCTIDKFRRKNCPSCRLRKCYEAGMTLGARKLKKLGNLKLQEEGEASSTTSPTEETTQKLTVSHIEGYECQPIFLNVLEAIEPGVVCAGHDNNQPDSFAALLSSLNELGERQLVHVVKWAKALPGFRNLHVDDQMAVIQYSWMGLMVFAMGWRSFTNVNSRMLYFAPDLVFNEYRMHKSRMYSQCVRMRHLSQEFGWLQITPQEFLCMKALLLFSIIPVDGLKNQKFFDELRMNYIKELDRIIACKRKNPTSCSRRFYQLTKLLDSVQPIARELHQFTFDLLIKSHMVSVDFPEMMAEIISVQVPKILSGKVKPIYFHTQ
In words: Antagonist activity at androgen receptor in human MDA-MB-453 cells assessed as inhibition of testosterone-induced transactivation. The data set is classed as cell-based.

The target of data set [4] is T1, Androgen receptor. In words: Displacement of [3H]DHT from androgen receptor in human MDA-MB-453 cells. The data set is classed as cell-based.
Data set [5] can be described thus: AUC (0 to 24 hrs) in BALB/c athymic mouse xenografted with bicalutamide-resistant human CWR22-BMSLD1 cells at 78 mg/kg, po. The note with it: in vivo. Further details: time < 24 hr, dose 78 mg/kg, route oral. The class given is ADME, organism-based. In general terms: In xenograft studies the graft and the host belong to different species.
A short description of data set [6]: Plasma concentration in immature rat prostate weight model at 15 mg/kg, po qd administered for 4 days measured 2 hrs post last dose on day 4. The data set is classed as ADME, organism-based.
The test system of data set [7] is Rattus norvegicus. In words: In vivo antagonist activity at androgen receptor in immature rat prostate weight model assessed as testosterone propionate-induced weight of seminal vesicles over full body weight at 15 mg/kg, po qd administered for 4 days relative to testosterone propionate treated control. The data set is classed as functional. Further details: scale not given: the % may be the effect or the level left.

For data set [8], the system named is Rattus norvegicus. In words: In vivo antagonist activity at androgen receptor in immature rat prostate weight model assessed as testosterone propionate-induced weight of seminal vesicles over full body weight at 30 mg/kg, po qd administered for 4 days relative to testosterone propionate treated control. The class given is functional. Also noted: scale not given: the % may be the effect or the level left.

The nature of data set [9]: Plasma concentration in immature rat prostate weight model at 30 mg/kg, po qd administered for 4 days measured 2 hrs post last dose on day 4. The class given is ADME, organism-based.
The test system of another data set is CWR22-BMSLD1. In words: Antitumor activity against bicalutamide-resistant human CWR22-BMSLD1 cells xenografted in BALB/c athymic mouse assessed as tumor stasis at 150 mg/kg, po qd for 20 days. The class given is functional, organism-based.
A short description of data set [10]: Drug metabolism in mouse liver microsomes assessed as oxidative metabolite formation. The class given is ADME. On the technique in general: Microsomes from liver hold many membrane-bound enzymes, among them those of drug oxidation.
Data set [11] relates to Rattus norvegicus. Put plainly: In vivo antagonist activity at androgen receptor in immature rat prostate weight model assessed as testosterone propionate-induced weight of seminal vesicles over full body weight at 25 mg/kg, po qd administered for 4 days relative to testosterone propionate treated control. The data set is classed as functional. Also noted: scale not given: the % may be the effect or the level left.

Data set [12] can be described thus: Antitumor activity against bicalutamide-resistant human CWR22-BMSLD1 cells xenografted in BALB/c athymic mouse assessed as tumor growth inhibition at 150 mg/kg, po qd for 20 days measured on last day of dosing relative to control. The data set is classed as functional. The note with it: 480 h, read-out: TGI.
Another data set deals with Mus musculus. In words: Toxicity in BALB/c athymic mouse xenografted with bicalutamide-resistant human CWR22-BMSLD1 cells at 150 mg/kg, po qd for 20 days. The data set is classed as organism-based. The note with it: in vivo, 480 h.
The nature of data set [13]: Plasma concentration in immature rat prostate weight model at 25 mg/kg, po qd administered for 4 days measured 2 hrs post last dose on day 4. The class given is ADME, organism-based.

With `CCS(=O)(=O)N[C@@H]1C[C@@]2(C)O[C@]1(C)[C@@H]1C(=O)N(c3ccc(C#N)c(C(F)(F)F)c3)C(=O)[C@@H]12`, in data set [1], the concentration at 2 h came out at 4000 nM. In addition, the Activity with Rattus norvegicus [2] came to 26%.

A word on the IC50: it is the concentration that inhibits the measured activity by half. What is called Ki is the equilibrium dissociation constant of an inhibitor or competing ligand from its target. As for `C[C@@]12[C@@H]3CC[C@@H](C3O)[C@@H]1CN(c1ccc(C#N)c(C(F)(F)F)c1)S2(=O)=O` (stereo in doubt; 15), on Androgen receptor [3], the IC50 worked out at 444 nM. Besides, the affinity at Androgen receptor [4], expressed as Ki, was 106 nM.

Broadly, the AUC(0-t) is exposure summed from dosing to a finite time, without extrapolation to infinity. `CNC(=O)[C@@]12[C@@H](CN(c3ccc(C#N)c(C(F)(F)F)c3)S1(=O)=O)[C@H]1C[C@H](F)[C@@H]2C1` returned an AUC(0-t) at 24 h in [5] of 0.0031 µM·h. In addition, the IC50 on Androgen receptor [3] was determined as 57 nM. On Androgen receptor [4], the Ki is 5 nM. Moreover, the concentration at 2 h in [6] was 2900 nM. Further, in the data set with Rattus norvegicus [7], the Activity is 30%.

For `C[C@@]12[C@H]3C[C@H]([C@H](O)C3)[C@@H]1CN(c1ccc(C#N)c(C(F)(F)F)c1)S2(=O)=O`, the AUC(0-t) at 24 h in [5] was above 2 µM·h. Moreover, the IC50 at Androgen receptor [3] is 430 nM. Moreover, in the data set on Rattus norvegicus [8], the Activity is listed as 58%. At Androgen receptor [4], this compound registered a Ki of 28 nM.

Take `N#Cc1ccc(N2C[C@@H]3[C@@H]([C@@H]4C=C[C@H]3C4)S2(=O)=O)cc1C(F)(F)F`: the concentration for half-maximal inhibition (IC50) on Androgen receptor [3] came to 219 nM. Also, the Ki at Androgen receptor [4] turned out to be 12 nM.

`N#Cc1ccc(N2C[C@H]3[C@H]4CC[C@H](C4)[C@@]3(C(N)=O)S2(=O)=O)cc1C(F)(F)F` came in with an AUC(0-t) at 24 h in [5] above 2 µM·h. Also, the IC50 at Androgen receptor [3] was 55 nM. For the same compound, the affinity on Androgen receptor [4] corresponds to a Ki of 3 nM. Moreover, the Activity in the data set with Rattus norvegicus [7] stood at 55%.

Consider `C[C@@]12[C@@H]3CC[C@@H](C3O)[C@@H]1CN(c1ccc(C#N)c(C(F)(F)F)c1)S2(=O)=O` (stereo in doubt; 17), for which the IC50 on Androgen receptor [3] turned out to be 327 nM. This compound showed a Ki on Androgen receptor [4] of 48 nM.

Regarding `C[C@@]12[C@@H](CN(c3ccc(C#N)c(C(F)(F)F)c3)S1(=O)=O)[C@H]1C[C@H](O)[C@@H]2C1`, the AUC(0-t) at 24 h in [5] is above 2 µM·h. Also, on Androgen receptor [3], the IC50 stood at 106 nM. Moreover, in [9], the concentration at 2 h was found to be 790 nM. In the data set with Rattus norvegicus [8], the Activity is 60%. Further, at Androgen receptor [4], the Ki is 3 nM.

Turning to `N#Cc1ccc(N2C[C@H]3[C@H]4CC[C@H](C4)[C@H]3S2(=O)=O)cc1C(F)(F)F`, the concentration for half-maximal inhibition (IC50) at Androgen receptor [3] turned out to be 130 nM. This compound registered a Ki at Androgen receptor [4] of 3 nM.

For `C[C@@]12[C@@H]3C=C[C@@H](C3)[C@@H]1CN(c1ccc(C#N)c(C(F)(F)F)c1)S2(=O)=O`, the result in the data set on CWR22-BMSLD1 was Active. Moreover, the Drug metabolism result in data set [10] is “Metabolite_Detected”. Also, the Activity in the data set with Rattus norvegicus [11] was 35%; with Mus musculus, “Non-Toxic”. For the same compound, on Androgen receptor [3], the IC50 is 30 nM. For the same compound, the inhibition in vivo at 150 mg/kg in data set [12] was 87%. The compound also showed a concentration at 2 h in data set [13] of 50 nM. This compound also yielded a Ki at Androgen receptor [4] of 2 nM.

On to `C[C@@]12[C@@H]3CC[C@@H](C3=O)[C@@H]1CN(c1ccc(C#N)c(C(F)(F)F)c1)S2(=O)=O`, for which the IC50 at Androgen receptor [3] was found to be 67 nM. The same compound displayed a Ki at Androgen receptor [4] of 8 nM.

Take `C[C@@]12[C@@H]3CC[C@@H](C3)[C@@H]1CN(c1ccc(C#N)c(C(F)(F)F)c1)S2(=O)=O`: the IC50 on Androgen receptor [3] is 73 nM. This compound also registered an inhibitory constant (Ki) on Androgen receptor [4] of 3 nM.

Turning to `CNC(=O)[C@@]12[C@@H]3CC[C@@H](C3)[C@@H]1CN(c1ccc(C#N)c(C(F)(F)F)c1)S2(=O)=O`, the AUC(0-t) at 24 h in data set [5] was above 2 µM·h. In addition, the IC50 at Androgen receptor [3] stood at 44 nM. The compound further showed a Ki at Androgen receptor [4] of 3 nM. In [6], this compound yielded a concentration at 2 h of 7250 nM. Moreover, the Activity in the data set on Rattus norvegicus [7] is listed as 51%.

Turning to `CC(O)(CS(=O)(=O)c1ccc(F)cc1)C(=O)Nc1ccc(C#N)c(C(F)(F)F)c1` (centres undefined) [BICALUTAMIDE], in [12], the inhibition in vivo at 150 mg/kg was 39%. The Activity result was “Non-Toxic” in the data set with Mus musculus and 41% in the data set on Rattus norvegicus [2]. The concentration at 2 h in data set [1] came to 9500 nM.

The compound `C[C@@]12[C@@H](CN(c3ccc(C#N)c(C(F)(F)F)c3)S1(=O)=O)[C@H]1C[C@H](F)[C@@H]2C1` came in with an AUC(0-t) at 24 h in [5] above 2 µM·h. In addition, the IC50 on Androgen receptor [3] was determined as 91 nM. Affinity on Androgen receptor [4] was put at a Ki of 8 nM. In addition, the concentration at 2 h in data set [6] stood at 2800 nM. In addition, the Activity in the data set with Rattus norvegicus [7] is on record as 65%.
